Assay results reported in PMC6162302, “A modified serine cycle in Escherichia coli coverts methanol and CO2 to two-carbon compounds” (Nature Communications, 2018).

Molecular target: T1, Medh(CT4–1), variant of Mdh2 (Cupriavidus necator, UniProt F8GNE5)
T1 construct: engineered variant CT4-1 of Mdh2, N-terminal His-tag, expressed in E. coli BL21(DE3), His-Spin column purified
T1 sequence (F8GNE5 1-390): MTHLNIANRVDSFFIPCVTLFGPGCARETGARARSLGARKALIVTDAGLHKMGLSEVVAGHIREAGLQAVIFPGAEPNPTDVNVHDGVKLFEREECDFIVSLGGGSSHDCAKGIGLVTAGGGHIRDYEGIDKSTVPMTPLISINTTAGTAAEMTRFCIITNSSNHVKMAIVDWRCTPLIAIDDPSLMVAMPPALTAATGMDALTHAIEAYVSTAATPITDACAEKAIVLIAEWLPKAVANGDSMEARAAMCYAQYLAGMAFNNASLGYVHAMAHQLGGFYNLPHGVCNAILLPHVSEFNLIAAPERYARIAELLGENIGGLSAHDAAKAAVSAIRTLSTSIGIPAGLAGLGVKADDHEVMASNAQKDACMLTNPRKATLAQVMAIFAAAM
Experiment: NADH formation at […] nm
Type: biochemical
Settings: 500 mM methanol, 5 mM MgCl2, 100 mM NaHCO3 pH 9.5, 37 °C

NC(=O)c1ccc[n+]([C@@H]2O[C@H](COP(=O)(O)OP(=O)(O)OC[C@H]3O[C@@H](n4cnc5c(N)ncnc54)[C@H](O)[C@@H]3O)[C@@H](O)[C@H]2O)c1 [NAD]
NADH formation at 340 nm: oxidation of methanol to formaldehyde with the formation of NADH
